Results taken from patent US20250248970A1, “NOVEL SUBSTITUTED FLUORINATED N-PROPYL-PYRROLIDINE COMPOUNDS, PROCESSES FOR THEIR PREPARATION AND THERAPEUTIC USES THEREOF” (SANOFI, priority 2022, published 2025).

Experiments:
[1] = biological target: T1, ERα (Homo sapiens, UniProt P03372); assay: Estrogen receptor degradation activity (breast cancer cell ERα in cell western assay); type: cell-based; details: MCF7 cells, 0.3 μM, 4 hours, % of ERα levels decrease relative to fulvestrant
T1 construct: host or cells: MCF7
T1 sequence (P03372 1-595): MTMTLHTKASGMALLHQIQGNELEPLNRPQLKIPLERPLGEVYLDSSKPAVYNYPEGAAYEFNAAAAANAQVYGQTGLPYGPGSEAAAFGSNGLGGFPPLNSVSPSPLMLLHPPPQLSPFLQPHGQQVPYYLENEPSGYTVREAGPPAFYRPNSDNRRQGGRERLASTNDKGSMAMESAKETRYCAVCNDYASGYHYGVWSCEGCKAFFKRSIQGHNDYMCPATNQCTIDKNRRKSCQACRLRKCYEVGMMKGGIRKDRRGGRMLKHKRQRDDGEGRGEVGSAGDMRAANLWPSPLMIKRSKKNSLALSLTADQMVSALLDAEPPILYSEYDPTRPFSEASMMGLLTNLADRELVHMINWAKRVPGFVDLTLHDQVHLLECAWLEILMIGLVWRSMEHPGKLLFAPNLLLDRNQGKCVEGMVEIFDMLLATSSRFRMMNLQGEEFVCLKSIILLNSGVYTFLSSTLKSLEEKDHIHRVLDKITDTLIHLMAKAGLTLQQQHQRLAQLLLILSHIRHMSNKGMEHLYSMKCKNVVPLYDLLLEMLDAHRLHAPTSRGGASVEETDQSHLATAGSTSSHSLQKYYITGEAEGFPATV
Procedure, shortened: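 MCF7 cells in phenol red-free MEM alpha with 5% charcoal-stripped FBS were exposed for 4 h to 9-point 1:5 dilutions (0.3–0.0000018 μM final). In-cell western: anti-ERα immunofluorescence normalized to Syto-64 DNA stain, scaled between DMSO and 0.1 μM fulvestrant; IC50 as 50% ERα degradation, in nM.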

[2] = test system: CYP3A4; assay: CYP3A4 induction potential for ADME profile evaluation (CYP3A4 mRNA by RT-PCR in primary human hepatocytes); type: in vitro ADME; details: approximately 48 hours, 0.3-10 μM, relative to 10 μM rifampicin
Experimental: Such test is based, for example, on the quantification of CYP3A4 mRNA induction performed by RT-PCR analysis. Said % Emax may be calculated as detailed in the illustrative part under the following formula:
[formula] • ECompound: relative fold mRNA expression following treatment with test compound, • EPositive control: relative fold mRNA expression following reference inducer i.e., 10 μM rifampicin, • EVehicle control: relative fold mRNA expression following vehicle treatment i.e., 0.1% DMSO, and • E is the efficiency of the quantitative PCR.
Said test evaluates the potential induction effect of the tested compounds on CYP3A4 gene expression in primary cultures of human hepatocytes from one or two donors with established concentration-dependent response to the reference inducer, rifampicin.
Before seeding, cell viability was estimated using the Trypan blue dye exclusion test. Hepatocytes were seeded on collagen I-coated 96-well plates at a density of 70 000 cells/well in 100 μL of plating medium for at least 4 hours under a humidified atmosphere of CO2/air (5%/95%), at 37° C. After the cell attachment period, the plating medium was removed, and the hepatocytes were treated daily for 2 consecutive days (approximately 48 hours), with 100 μL per well of fresh culture medium containing either the vehicle control (0.1% DMSO) or the investigated compounds at four concentrations 0.3, 1, 3 and 10 μM, or rifampicin, the reference inducer at 10 μM. All incubations were performed in duplicates.
Ten mM stock solutions of the different compounds were diluted to obtain 0.3, 1 and 3 mM daughter solutions. The day of the experiment, stock solutions were diluted 1000-fold in the incubation/culture medium to achieve final concentrations of 0.3, 1, 3 and 10 μM.
After the 48-hour incubation period with the test compounds, the cell culture medium was removed, and the cells were lysed to release the RNA for CYP3A4 gene expression assessment. Quantification of CYP3A4 mRNA induction was performed by RT-PCR analysis.
Total RNA was extracted from hepatocytes using the King Fisher™ Flex Purification System with the MagMAX mirVana Total RNA Isolation kit (Thermo Fisher Scientific, USA). RNA was quantified by fluorimetry using the Quantifluor RNA System (Promega, USA) and cDNAs were synthesized from […] total RNA using the iScript Reverse Transcription Supermix for RT-qPCR from Biorad (France) at 42° C. for 30 min. cDNA samples were then diluted in water (1:5) and 5 μL of each sample was used for real-time PCR amplification by using the SYBR Green kit from Biorad (France). The following program was used: a denaturation step at 95° C. for 30 sec, and 40 cycles of PCR (denaturation, 95° C., 10 sec and annealing and extension, 58° C., 1 min). In all cases, the quality of the PCR product was assessed by monitoring a fusion step at the end of the run. Human forward and reverse primer sequences used were: 5′-CCT-GGC-ACC-CAG-CAC-AAT-3′ and 5′-GGG-CCG GAC-TCG-TCA-TAC-3′ for actin, 5′-CAC-AAA-CG-GAG-GCC-TTT-TG-3′ and 5′-ATC-CAT-GCT-GTA-GGC-CCC-AA-3′ for CYP3A4.
Cq (quantification cycle) values were determined using a multi-variable, non-linear regression model to individual well traces and then using this model an optimal Cq value was computed. Cq values are inversely proportional to the amount of target nucleic acid in the sample (i.e., lowest Cq level corresponds to the greatest amount of target nucleic acid in the sample). Cq of reference gene (in this study human actin) was also used as positive control of quantitative PCR.
The extent of induction or % of Emax, resulting from treatment with test compounds was calculated under the following formula: […]

SMILES: Cc1c(C2=C(c3ccc(CC4CCN(CCCF)C4)cc3)c3ccc(C(=O)O)cc3CCC2)cccc1C(F)(F)F.Cl (single isomer, unassigned; isomer 1) [Compound 12, 9-(4-((1-(3-fluoropropyl)pyrrolidin-3-yl)methyl)phenyl)-8-(2-methyl-3-(trifluoromethyl)phenyl)-6,7-dihydro-5H-benzo[7]annulene-3-carboxylic acid hydrochloride, Isomer 1]
- % Degradation At 0.3 μM [1]: 90%
- CYP3A4 induction Emax (%) [2]: 34%
